Key:
PD-1/PD-L1 = PD-1/PD-L1 (Homo sapiens, UniProt Q9NZQ7); assay: PD-1/PD-L1 biochemical protein-protein interaction assay (ALPHA); type: binding; details: 0.3 nM His tagged PD-L1, 2.5 nM biotinylated Fc-PD-1, 60 minutes at 25° C., read-out: IC50 PD-L1-PD-1 Alpha IC50-mono PD-L1-fcP-D1
Outline: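 ALPHA bead proximity assay of extracellular domains: 0.3 nM His-PD-L1 with 2.5 nM biotinylated Fc-PD-1 in 25 mM Hepes pH 7.4, 150 mM NaCl, 3.4 mM EDTA, 0.005% Tween 20, 0.01% BSA, 60 min at 25 °C. Anti-His acceptor and streptavidin donor beads added; IC50 from four-parameter fit of signal loss.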

PD-1/PD-L1 interaction = molecular target: T1, PD-1/PD-L1 interaction (Homo sapiens, UniProt Q9NZQ7); assay: PD-1/PD-L1 NFAT reporter co-culture assay; type: cell-based; details: Jurkat PD-1 NFAT-luciferase cells co-cultured with aAPC-PD-L1 CHO cells, 6 hrs at 37° C.; read-out: EC50 NFAT Luciferase
T1 construct: expressed in transfected cells; host or cells: CHO cells (aAPC-PD-L1) co-cultured with Jurkat cells overexpressing PD-1 and an NFAT-luciferase reporter
T1 sequence (Q9NZQ7 19-290): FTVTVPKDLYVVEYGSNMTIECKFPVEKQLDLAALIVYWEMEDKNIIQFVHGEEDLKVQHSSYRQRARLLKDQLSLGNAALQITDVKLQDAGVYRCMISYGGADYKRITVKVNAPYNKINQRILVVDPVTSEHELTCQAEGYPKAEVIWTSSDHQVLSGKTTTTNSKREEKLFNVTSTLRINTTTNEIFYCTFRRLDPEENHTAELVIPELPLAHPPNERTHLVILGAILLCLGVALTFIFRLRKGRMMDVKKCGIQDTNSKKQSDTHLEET
Outline: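 Restoration of TCR-driven NFAT luciferase signal: 6 h, 37 °C co-culture of PD-1 Jurkat reporter cells (pre-mixed with compound) on overnight-seeded PD-L1/anti-CD3 CHO monolayer. ONE-Glo luminescence; dose-response fitted to four-parameter equation for EC50.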

PD-L1 = molecular target: T2, PD-L1 (Homo sapiens, UniProt Q9NZQ7); assay: PD-L1/PD-L1 dimerization biochemical protein-protein interaction assay (ALPHA); type: binding; details: compound-induced PD-L1 dimerization, head prints '1 nM' (0.5 nM His-tagged PD-L1 and 0.5 nM FLAG-tagged PD-L1), read-out: AC50 PDL1 Dimer Alpha 1 nM
T2 construct: determine if they can specifically dimerize the extracellular domains of PD-L1
T2 sequence (Q9NZQ7 19-238 limits assumed): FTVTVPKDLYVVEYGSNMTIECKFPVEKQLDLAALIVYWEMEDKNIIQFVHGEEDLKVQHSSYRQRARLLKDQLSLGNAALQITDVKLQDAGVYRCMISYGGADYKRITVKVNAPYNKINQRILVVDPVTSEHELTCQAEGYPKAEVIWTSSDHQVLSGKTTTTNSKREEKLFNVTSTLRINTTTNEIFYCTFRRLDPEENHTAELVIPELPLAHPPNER
T2 sequence (Q9NZQ7 19-238 limits assumed): as above
Outline: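 ALPHA proximity assay of compound-induced dimerization of 0.5 nM His-tagged and 0.5 nM FLAG-tagged PD-L1 extracellular domains in Hepes pH 7.4 buffer, 2 h at 25 °C. Anti-His acceptor then anti-FLAG donor beads, 60 min each; AC50 from four-parameter fit.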

Chain of PD-1/PD-L1 (Q9NZQ7 19-238 limits assumed): as above

IC50 (PD-1/PD-L1) [nM]	EC50 (PD-1/PD-L1 interaction) [nM]	AC50 (PD-L1) [nM]	Compound
0.064	30	30.7	COc1nc(-c2cccc(-c3cccc4c3CC[C@@H]4Oc3nc(OC)c(CN[C@@](C)(CO)C(=O)O)cc3Cl)c2Cl)ccc1CN[C@@H]1CCC[C@@H]1O [Example 645]
6.25	145	73.2	COc1nc(-c2cccc(-c3cccc4c3CC[C@@H]4Oc3nc(OC)c(CN[C@@H]4CCC[C@@H]4O)cc3Cl)c2Cl)ccc1CN[C@@H]1CCC[C@@H]1O [Example 646]
1.89	234	211	COc1nc(O[C@H]2CCc3c(-c4cccc(-c5cnc(CN[C@@H]6CCC[C@@H]6O)c(OC)n5)c4Cl)cccc32)c(Cl)cc1CNC[C@@H]1CCC(=O)N1 [Example 647]
0.064	57	60.9	COc1nc(O[C@H]2CCc3c(-c4cccc(-c5cnc(CN[C@@H]6CCC[C@@H]6O)c(OC)n5)c4Cl)cccc32)c(Cl)cc1CN[C@@](C)(CO)C(=O)O [Example 648]
0.064	29	38.8	COc1nc(O[C@H]2CCc3c(-c4cccc(-c5cnc(CNC[C@@H]6CCC(=O)N6)c(OC)n5)c4Cl)cccc32)c(Cl)cc1CN[C@@](C)(CO)C(=O)O [Example 649]
0.288	39	8.2	COc1nc(O[C@H]2CCc3c(-c4cccc(-c5ccc(CNC[C@@H]6CCC(=O)N6)c(OCC#N)c5)c4Cl)cccc32)c(Cl)cc1CN[C@@H]1CCC[C@@H]1O [Example 650]
0.297	41	29.5	COc1nc(O[C@H]2CCc3c(-c4cccc(-c5ccc(CNC[C@@H]6CCC(=O)N6)c(OCC#N)n5)c4Cl)cccc32)c(Cl)cc1CN[C@@H]1CCC[C@@H]1O [Example 651]
0.158	59	140	COc1nc(O[C@H]2CCc3c(-c4cccc(-c5cnc(CNC[C@@H]6CCC(=O)N6)c(OC)n5)c4Cl)cccc32)c(Cl)cc1CNC[C@@H]1CCC(=O)N1 [Example 652]
0.17	93	105	N#CCOc1cc(-c2cccc(-c3cccc4c3CC[C@@H]4Oc3nc(OCC#N)c(CNC[C@@H]4CCC(=O)N4)cc3Cl)c2Cl)ccc1CNC[C@@H]1CCC(=O)N1 [Example 653]
0.09	27	10.9	COc1nc(O[C@H]2CCc3c(-c4cccc(-c5ccc(CNC[C@@H]6CCC(=O)N6)c(OCC#N)c5)c4Cl)cccc32)c(Cl)cc1CNC[C@@H](O)CC(=O)O [Example 654]
0.404	28	26	COc1nc(O[C@H]2CCc3c(-c4cccc(-c5ccc(CNC[C@@H]6CCC(=O)N6)c(OCC#N)c5)c4Cl)cccc32)c(Cl)cc1CNC[C@@H]1CCC(=O)N1 [Example 655]
0.29	24	37.7	COc1nc(O[C@H]2CCc3c(-c4cccc(-c5ccc(CNC[C@@H]6CCC(=O)N6)c(OCC#N)n5)c4Cl)cccc32)c(Cl)cc1CNC[C@@H]1CCC(=O)N1 [Example 656]
0.795	197	156	COc1nc(O[C@H]2CCc3c(-c4cccc(-c5ccc(CNC[C@@H]6CCC(=O)N6)c(OC(F)F)c5)c4Cl)cccc32)c(Cl)cc1CNC[C@@H]1CCC(=O)N1 [Example 657]
0.221	51	78.5	COc1nc(-c2cccc(-c3cccc4c3CC[C@@H]4Oc3nc(OCC#N)c(CNC[C@@H]4CCC(=O)N4)cc3Cl)c2Cl)ccc1CNC[C@@H]1CCC(=O)N1 [Example 658]
0.064	51	22.1	CS(=O)(=O)c1cncc(COc2nc(O[C@H]3CCc4c(-c5cccc(-c6ccc(CN)cc6)c5Cl)cccc43)c(Cl)cc2CNC[C@@H](O)CC(=O)O)c1 [Example 659]
0.064	107	15.2	C[C@@](CO)(NCc1cc(Cl)c(O[C@H]2CCc3c(-c4cccc(-c5ccc(OCCNCCO)cc5)c4Cl)cccc32)nc1OCc1cncc(S(C)(=O)=O)c1)C(=O)O [Example 660]
0.256	159	126	N#Cc1cncc(COc2nc(O[C@H]3CCc4c(-c5cccc(-c6ccc(OCCNCCO)cc6)c5Cl)cccc43)ccc2CNC[C@@H](O)CC(=O)O)c1 [Example 661]
0.139	83	14.5	N#Cc1cncc(COc2nc(O[C@H]3CCc4c(-c5cccc(-c6ccc(OCCNCCO)cc6)c5Cl)cccc43)c(Br)cc2CNC[C@@H](O)CC(=O)O)c1 [Example 662]

Continued, molecule first:

Compound	IC50 (PD-1/PD-L1) [nM]	EC50 (PD-1/PD-L1 interaction) [nM]	AC50 (PD-L1) [nM]
O=C1CC[C@@H](CNCc2ccc(-c3cccc(-c4cccc(-c5ccc(CNC[C@@H]6CCC(=O)N6)c(N6CCOCC6)c5)c4Cl)c3Cl)cc2N2CCOCC2)N1 [Example 626]	3.08	≥ 50000	≥ 10000
COc1cc(-c2cccc(-c3cccc(-c4ccc(CNCCO)c(OC)c4)c3C)c2C)ccc1CNCCO [Example 627]	2.44	≥ 50000	480
COc1cc(-c2cccc(-c3cccc(-c4cnc(C5=NCCN5)c(OC)c4)c3Cl)c2Cl)cnc1CNC[C@@H](O)CC(=O)O [Example 629]	0.064	251	≥ 10000
COc1cc(-c2cccc(-c3cccc(-c4cnc(C5=NCCN5)c(OC)c4)c3Cl)c2Cl)cnc1C1=NCCN1 [Example 630]	0.064	165	≥ 10000
COc1nc(-c2cccc(-c3cccc(N4Cc5cc(CN6CC7(CCC(=O)N7)C6)ccc5C4=O)c3Cl)c2Cl)ccc1CN1CC2(CCC(=O)N2)C1 [Example 631]	0.13	≥ 50000	441
COc1nc(-c2cccc(-c3cccc(N4Cc5cc(CNC[C@@H]6CCC(=O)N6)ccc5C4=O)c3Cl)c2Cl)ccc1CNC[C@@H]1CCC(=O)N1 [Example 632]	0.147	2980	314
COc1nc(-c2cccc(-c3cccc(-c4nc5ccc(CNC[C@@H]6CCC(=O)N6)cn5n4)c3Cl)c2Cl)ccc1CNC[C@@H]1CCC(=O)N1 [Example 633]	1.26	2280	2840
COc1nc(-c2cccc(-c3cccc(-c4nc5cc(CNCCO)cc(OC)c5o4)c3Cl)c2Cl)ccc1CNCCO [Example 634]	0.208	495	96.9
OCCNCc1cc(Cl)c2nc(-c3cccc(-c4cccc(-c5nc6c(Cl)cc(CNCCO)cn6n5)c4Cl)c3Cl)nn2c1 [Example 635]	0.1	≥ 50000	340
COc1nc(-c2cccc(-c3cccc(-c4nc5cc(CNCCO)ccc5o4)c3Cl)c2Cl)ccc1CNCCO [Example 636]	0.188	180	83.6
CS(=O)(=O)c1cncc(COc2nc(O[C@H]3CCc4c(-c5cccc(-c6ccc(OCCNCCO)cc6)c5Cl)cccc43)c(Cl)cc2CNC[C@@H](O)CC(=O)O)c1 [Example 637, (S)-4-(((5-chloro-6-(((S)-4-(2-chloro-4′-(2-((2-hydroxyethyl)amino)ethoxy)-[1,1′-biphenyl]-3-yl)-2,3-dihydro-1H-inden-1-yl)oxy)-2-((5-(methylsulfonyl)pyridin-3-yl)methoxy)pyridin-3-yl)methyl)amino)-3-hydroxybutanoic acid]	0.064	90	20.8
COc1nc(O[C@H]2CCc3c(-c4cccc(-c5nc6cc(CNCCO)ccn6n5)c4Cl)cccc32)c(Cl)cc1CNCCO [Example 638, (S)-2-(((2-(2-chloro-3-(1-((3-chloro-5-(((2-hydroxyethyl)amino)methyl)-6-methoxypyridin-2-yl)oxy)-2,3-dihydro-1H-inden-4-yl)phenyl)-[1,2,4]triazolo[1,5-a]pyridin-7-yl)methyl)amino)ethan-1-ol]	0.064	429	23.8
COc1nc(-c2cccc(-c3cccc4c3CC[C@@H]4Oc3nc(OC)c(CN4CC[C@@H](c5nnn[nH]5)C4)cc3Cl)c2Cl)ccc1CNC[C@@H]1CCC(=O)N1 [Example 641]	0.064	60	34.7
COc1nc(O[C@H]2CCc3c(-c4cccc(-c5cnc(CNC[C@@H]6CCC(=O)N6)c(OC)n5)c4Cl)cccc32)c(Cl)cc1CN[C@@H]1CCC[C@@H]1O [Example 642]	2.36	194	67.2
COc1nc(O[C@H]2CCc3c(-c4cccc(-c5cnc(CN[C@@H]6CCC[C@@H]6O)c(OC)n5)c4Cl)cccc32)c(Cl)cc1CN[C@@H]1CCC[C@@H]1O [Example 643]	0.734	89	39
COc1nc(-c2cccc(-c3cccc4c3CC[C@@H]4Oc3nc(OC)c(CNC[C@@H]4CCC(=O)N4)cc3Cl)c2Cl)ccc1CN[C@@H]1CCC[C@@H]1O [Example 644]	1.95	82	136

Source: US12590062B2, “PD-1/PD-L1 inhibitors” (Gilead Sciences, Inc., priority 2017, dated 2026)
